Experimental findings from patent EP4700040A1, “PEPTIDE AND LUMINESCENT COMPLEX CONTAINING SAME” (Shenzhen Loggene Life Science & Technology Co., Ltd., priority 2023, dated 2024) are described below.

Type in all cases: biochemical, human
The test system of assay [1] is PCT. As to the kind of experiment: Luciferase dual-antibody complementary activation assay for PCT detection, clone supernatants, retest with CTZ-h (Example 1). The following applies: for Signal-to-noise ratio: RLU antigen+/RLU antigen-, MBP-PCT 3.3 ng/ml, CTZ-h; for PCT+: luminescence signal value with MBP-PCT 3.3 ng/ml, large subunit-rSCFV5 50 nM, supernatant; for PCT+ / PCT-: retest CTZ-h 25 µM, read after 60 s; for PCT-: luminescence signal value, background control PBSAD without PCT.

The subject of assay [2] is PCT. As to the kind of experiment: Complementation of purified rSCFV18-small subunit mutant fusion protein with large subunit-rSCFV5 fusion protein, PCT gradient (Example 2). As to conditions: for luminescence value: CTZ-h 25 µM, 20 s; for Signal-to-noise ratio at 1000 pg/ml: PCT 1000 pg/ml versus 0. Here is the method: Protein expression and purification of small subunit mutants: The strains containing plasmids of different small subunits inTable 2, prepared in Example 1, were inoculated into 200ml of 2YTA medium and cultured at 37°C with shaking at 250 rpm for about 3h. When the OD600 reached 1.0, IPTG was added to a final concentration of 1mM, and the culture was further incubated at 30°C with shaking at 250rpm for 20h. The culture were centrifuged at 5,000g for 10min, and the precipitate was resuspended with 10ml of PBS, added with polymyxin B to 20,000u/ml. The suspension was inverted and mixed at room temperature for 1h, and centrifuged at 10,000g to collect the supernatant. The rSCFV18-small subunit mutant fusion protein was purified according to the standard procedure for his-tag protein purification using Ni-NTA resin.
In the same tube, the large subunit-rSCFV5 fusion protein was diluted with PBSA to 50 nM; rSCFV18-small subunit mutant fusion protein was diluted to 90 nM, mixed well, and then 22 µl was added per well; the MBP-PCT fusion protein was diluted in 3-fold gradient with PBSAD (in pg/ml), with 8 gradients in total, 10µl was added per well, and the background control was PBSAD and 10 µl was added per well; the plate was mixed with slight shaking and incubated at 37°C for 6 min, 50 µl of Obuffer 6.37-3 containing 25 µM of CTZ-h then was added, and after 20 s, the luminescence value was detected.

In assay [3] the test system is PCT. As to the kind of experiment: Signal-to-noise ratio and linear range for PCT detection, purified fusion proteins (Example 3). The arrangement: key to luminescence value: luminescence normalized against the background value. The following applies: for Signal-to-noise ratio at 1000 pg/ml: large subunit 100 nM, small subunit fusion 180 nM, CTZ-h 25 µM, 140 s. As to the method:
Test Methods: • (1) MBP-PCT protein was diluted with PBSAD in 10-fold gradient starting from 100 ng/ml, with 8 gradients in total, and 10 µl was added per well; • (2) The large subunit-SCFV5 fusion protein was diluted with PBSA to 100 nM, and 10 µl was added per well; • (3) Different rSCFV18-small subunit mutant fusion proteins were diluted with PBSA to 180 nM, and 10 µl of each was added per well; • (4) The plate was mixed slightly and incubated at 37°C for 10 min; and • (5) 50 µl of Obuffer 6.37-3 containing 25 µM of CTZ-h was added, and after 140 s, the luminescence value was detected. The results are shown after normalization against the background value.

The subject of assay [4] is PCT. The description is as above. The following applies: PCT 3.3 (pg/ml); normalized against the background value. Set-up: key: luminescence normalized against the background value.
[5] abbreviates: PCT 0 pg/ml (background control PBSAD).
Where [6] appears, read: PCT 1000 pg/ml, large subunit 50 nM, small subunit fusion 90 nM.
[7] abbreviates: PCT 100 (pg/ml), normalized against the background value.
Where [8] appears, read: PCT 1000 (pg/ml), normalized against the background value.
[9] abbreviates: PCT 10000 (pg/ml), normalized against the background value.
Where [10] appears, read: PCT 100000 (pg/ml), normalized against the background value.

For VEGYRLFDRKS [RB073], the Signal-to-noise ratio in the assay with PCT [1] was determined as 48. The “PCT+” value with PCT [1] is given as 46672. In the assay on PCT [1], this sequence displayed a PCT- of 953. For the same sequence, the luminescence value with PCT [2] (setting [5]) is reported as 412; in the assay on PCT [2] (PCT 1.37 pg/ml), 358; in the assay with PCT [2] (PCT 4.12 pg/ml) it was 475; with PCT [2] (PCT 12.35 pg/ml), 591; in the assay on PCT [2] (PCT 37.04 pg/ml), 1013; with PCT [2] (PCT 111.1 pg/ml) it was 2302. Moreover, the luminescence value is 5886 in the assay on PCT [2] (PCT 333.3 pg/ml); 16026 in the assay on PCT [2] (setting [6]); 5000 with PCT [3] (PCT 0, background, normalized); 12151 in the assay on PCT [3] (setting [7]); 72352 with PCT [3] (setting [8]); 566678 with PCT [3] (setting [9]). Further, the luminescence value is reported as 1966617 in the assay with PCT [3] (setting [10]) and 5283 in the assay on PCT [4]. In addition, the “Signal-to-noise ratio at 1000 pg/ml” value in the assay with PCT [2] is reported as 38.9; in the assay with PCT [3], 14.5. Also, the “signal-to-noise ratios in luciferase dual-antibody complementary activation for PCT detection” value with PCT [3] (statement in words on Table 3 and Figure 2) is “higher signal-to-noise ratios”.

Consider VTGYRLFEEIL [P114, reference compound], for which the Signal-to-noise ratio in the assay on PCT [1] stood at 12.2. Moreover, the “PCT+” value in the assay with PCT [1] is listed as 5058. The PCT- with PCT [1] is recorded as 414. The luminescence value came to 333 in the assay with PCT [2] (setting [5]); 398 with PCT [2] (PCT 1.37 pg/ml); 383 with PCT [2] (PCT 4.12 pg/ml); 400 with PCT [2] (PCT 12.35 pg/ml); 435 with PCT [2] (PCT 37.04 pg/ml); 495 in the assay with PCT [2] (PCT 111.1 pg/ml). The luminescence value in the assay with PCT [2] (PCT 333.3 pg/ml) worked out at 656; in the assay on PCT [2] (setting [6]), 1256; with PCT [3] (PCT 0, background, normalized) it was 5000; in the assay with PCT [3] (setting [7]), 7073; with PCT [3] (setting [8]), 18839; in the assay with PCT [3] (setting [9]) it was 129750. Further, the luminescence value with PCT [3] (setting [10]) is reported as 642399; with PCT [4], 4789. The entries for the “Signal-to-noise ratio at 1000 pg/ml” value in the assay with PCT [2] and in the assay on PCT [3] were 1.44 and 3.8, respectively.
